Patent US12357605B2, “Muscle building agent” (KANEKA CORPORATION, priority 2019, dated 2025)

Tested on: muscle satellite cells
Experiment: Evaluation of muscle satellite cell activating effect (ratio of BrdU positive cells)
Type: cell-based, SD rat
Settings: for Ratio of activated muscle satellite cells, Mean: 24 hours culture, BrdU positive cells / total cells, solvent control 41.3%; for muscle satellite cell activating effect: in comparison with the solvent control, result in words
Method: The muscle satellite cells activation effect can be evaluated by, for example, the following in vitro test. Specifically, muscle satellite cells are isolated from an animal and cultured in a culture medium containing test sample for 24 hours. Then, bromodeoxyuridine (BrdU) is added thereto at the final concentration of 10 μM, and the mixture is incubated for 2 hours. Next, the muscle satellite cells are fixed at 4° C. for 10 minutes with ice-cooled methanol containing 0.1% H2O2 and are subjected to DNA denaturation treatment at 37° C. for 1 hour using 2 N hydrochloric acid, and BrdU positive cells are detected by using anti-BrdU antibody as a primary antibody, HRP-conjugated anti-mouse IgG antibody as a secondary antibody, and coloring with diaminobenzidine (DAB). The ratio of BrdU positive cells to the total number of cells is calculated as the ratio of activated muscle satellite cells. It is judged with respect to the ratio of activated muscle satellite cells of the muscle building agent according to the present invention that muscle satellite cells are activated in the case where a ratio of activated muscle satellite cells is increased by a treatment with a test substrate in comparison with a solvent control. An increase to a solvent control is preferably 2% or more, more preferably 3% or more and even more preferably 5% or more.
Muscle tissues were isolated from the upper hindlimb and back of 6-month old male SD rat (from Japan SLC). The muscle tissues were trimmed of adipose and connective tissue, minced, and treated with PBS containing 1.25 mg/mL protease (Sigma) at 37° C. for 1 hour. After muscle fiber fragments and tissue debris were removed by centrifugation, the cells were seeded on plates coated with polylysine (Sigma) and fibronectin (Sigma). After the cells were cultured in 5% CO2 atmosphere at 37° C. for 24 hours, muscle satellite cells were isolated by washing with PBS. DMEM (“Dulbecco's Modified Eagle Medium”, Thermo Fisher Scientific) containing 10% horse serum (Thermo Fisher Scientific) was used as a culture media. The culture media is hereinafter abbreviated as “10% HS-DMEM”.
The casuarinin prepared in Example 1 or the stachyurin prepared in Example 2 was dissolved in water and added in 10% HS-DMEM to prepare the 10% HS-DMEM containing casuarinin or stachyurin. The culture medium of the isolated muscle satellite cells were exchanged for the 10% HS-DMEM containing casuarinin or stachyurin, and the muscle satellite cells were cultured for 24 hours. Casuarinin concentrations were adjusted to 0.01 to 1.1 μM (13 to 1000 ng/mL), and stachyurin concentrations were adjusted to 0.09 to 0.4 μM (83 to 333 ng/mL). As a solvent control, 10% HS-DMEM was used.
Bromodeoxyuridine (BrdU, Sigma) was added to the culture medium at the final concentration of 10 μM, and the mixture was incubated for 2 hours. Then, the muscle satellite cells were fixed at 4° C. for 10 minutes with ice-cooled methanol containing 0.1% H2O2 and were further subjected to DNA denaturation treatment using 2 N hydrochloric acid at 37° C. for 1 hour, and BrdU positive cells were detected by using anti-BrdU antibody (Sigma) as a primary antibody, HRP-conjugated anti-mouse IgG antibody (Sigma) as a secondary antibody, and coloring with diaminobenzidine (DAB, Sigma). The ratio of BrdU positive cells to the total number of cells was calculated as the ratio of activated muscle satellite cells. The experiments were performed in 12 independent cell cultures in the case of the solvent control, and in 3 independent cultures in each concentration in the case of casuarinin or stachyurin. Data were expressed as the mean and standard deviation. The “*” in FIGS. 1 and 2 represents that the difference to the solvent control was statistically significant at p<0.05 by Dunnett's test. […]

SMILES	Ratio of activated muscle satellite cells, Mean (100 ng/mL) [%]	other results
O=C1OC[C@H]2OC(=O)c3cc(O)c(O)c(O)c3-c3c(O)c(O)c(O)c4c3C(=O)O[C@H]([C@H]3OC(=O)c5c-4c(O)c(O)c(O)c5[C@H]3O)[C@@H]2OC(=O)c2cc(O)c(O)c(O)c2-c2c1cc(O)c(O)c2O [Castalagin, castalagin, reference compound]	39.4	
O=C(O[C@@H]1OC2COC(=O)c3cc(O)c(O)c(O)c3-c3c(cc(O)c(O)c3O)C(=O)O[C@H]2[C@@H]2OC(=O)c3cc(O)c(O)c(O)c3-c3c(cc(O)c(O)c3O)C(=O)OC12)c1cc(O)c(O)c(O)c1 (stereo partly drawn) [Casuarictin, casuarictin, reference compound]	39.2	
O=C(O[C@@H]1COC(=O)c2cc(O)c(O)c(O)c2-c2c(cc(O)c(O)c2O)C(=O)O[C@H]1[C@@H]1OC(=O)c2cc(O)c(O)c(O)c2-c2c(O)c(O)c(O)c3c2C(=O)O[C@H]1C3O)c1cc(O)c(O)c(O)c1 (stereo partly drawn) [Casuarinin, casuarinin]	50.8	Ratio of activated muscle satellite cells, Mean (0.01 μM (13 ng/mL)): 43.3%; Ratio of activated muscle satellite cells, Mean (0.03 μM (25 ng/mL)): 44.9%; Ratio of activated muscle satellite cells, Mean (0.05 μM (50 ng/mL)): 51.3%; Ratio of activated muscle satellite cells, Mean (0.3 μM (250 ng/mL)): 48.8%; Ratio of activated muscle satellite cells, Mean (1.1 μM (1000 ng/mL)): 43.7%; muscle satellite cell activating effect: significant muscle satellite cell activating effect
Oc1cc(O)c2c(c1)O[C@@H](c1ccc(O)c(O)c1)[C@H](O)C2 [Catechin, catechin, reference compound]	42.1	
O=c1oc2c(O)c(O)cc3c(=O)oc4c(O)c(O)cc1c4c23 [Ellagic acid, ellagic acid, reference compound]	38.3	
O=C(O)c1cc(O)c(O)c(O)c1 [Gallic acid, gallic acid, reference compound]	37.8	
O=c1c(O[C@@H]2O[C@H](CO)[C@H](O)[C@H](O)[C@H]2O)c(-c2ccc(O)c(O)c2)oc2cc(O)cc(O)c12 [Hyperin, hyperin, reference compound]	38.2	
C[C@@H]1OC(Oc2c(-c3cc(O)c(O)c(O)c3)oc3cc(O)cc(O)c3c2=O)[C@H](O)[C@H](O)[C@H]1O (stereo partly drawn) [Myricitrin, myricitrin, reference compound]	41.8	
C[C@@H]1O[C@@H](Oc2c(-c3ccc(O)c(O)c3)oc3cc(O)cc(O)c3c2=O)[C@H](O)[C@H](O)[C@H]1O [Quercitrin, quercitrin, reference compound]	40.0	
O=C(O[C@@H]1COC(=O)c2cc(O)c(O)c(O)c2-c2c(cc(O)c(O)c2O)C(=O)O[C@H]1[C@@H]1OC(=O)c2cc(O)c(O)c(O)c2-c2c(O)c(O)c(O)c3c2C(=O)O[C@H]1[C@H]3O)c1cc(O)c(O)c(O)c1 [Stachyurin, stachyurin]		Ratio of activated muscle satellite cells, Mean (0.09 μM (83 ng/mL)): 44.7%; Ratio of activated muscle satellite cells, Mean (0.4 μM (333 ng/mL)): 48.5%; muscle satellite cell activating effect: significant muscle satellite cell activating effect
